Where two headings read alike, the source gives them in different places.
Columns and labels:
[1] = system: Lewis Lung Cancer; experiment: Anticancer activity in Lewis lung carcinoma animal model; format: in vivo, C57 mice; settings: mice, oral, Indirubin 100 × 9, Meisoindigo 106 × 9 mg/kgxd
Description: Briefly, C57 mice, body weight between 18 to 22 grams, and rat, body weight between 50 to 55 grams, were randomly divided into several groups, ten of each, respectively. Approximately 2×10^6 of Lewis cancer cells or Walker sarcoma cells were transplanted into mice or rat. […] The animals in the control group were given 0.1 ml saline (drug vehicle, negative control) for the same periods of time as treated group. The animals at end of the treatment were sacrificed and tumors were removed and weighed.

[2] = system: TA97, TA98, TA100 and TA102; experiment: Reverse mutation, Ames test; format: cell-based, salmonella typhimurium; settings: +S9 and −S9, Meisoindigo 2, 20, 50, 100 and 200 μg/dish
Description: Meisoindigo at concentrations of 2, 20, 50, 100 and 200 μg/dish (10 cm), metabolically activated (+S9) and inactivated (−S9), were tested in strains of TA97, TA98, TA100 and TA102 (amino acid deficit salmonella typhimurium) respectively. Daunomycin, 2-aminofluorene (2AF), methylmethanesulfonate (MMS), 2,7-2AF, and 2-hydroxy-anthraquinone were used as positive controls.

[3] = system: poly(ADP-ribose) polymerase (PARP); experiment: PARP degradation by Western blot in N2A cells; format: cell-based, Mouse; settings: 24 hours
Description: Induction of Apoptosis: As we mentioned previously that cancer cells probably have two options after arrest at G1 phase, i.e. differentiation or apoptosis. […] The cells were harvested, washed and DNA extracted. Approximately 2 μg per lane of DNA were subjected to 2% agarose gel electrophoresis. […] The cells were harvested, washed, and total proteins extracted for determination of PARP degradation by Western blotting as described previously. Upper panels (A & B) are imagines from ECL films, and lower panels (A′ & B′) are densities of the corresponding bands measured by an Imagine Densitometer (expressed as the percent of control).

[4] = parameters: species or system dogs; settings: dog, in vivo
Description: Two dogs were initially tested for sub-acute toxicity of Meisoindigo. They were orally given 10 mg/kg daily for 3 months.
Since no major toxicities were found during the initial study, an additional 3 dogs were tested by orally giving them a higher dose (20 mg/kg). Among them, one dog was given 20 mg/kg for 46 days, and another 2 dogs given for 2 months. […] However, all of those symptoms disappeared after the termination of the treatment of Meisoindigo.

[5] = Chronic toxicity in dogs; format: in vivo
Description: On the basis of above initial tests, the sub-acute toxicities of Meisoindigo were further examined in dogs. Twelve dogs were randomly divided into 3 groups each having equal numbers of males and females, and orally given Meisoindigo at doses of 0, 5, and 10 mg/kg daily, respectively, for 6 months. […] All parameters tested, in all animals, including controls fluctuated within normal ranges.
Twenty-four hours after the termination of Meisoindigo, half of the animal of each group were sacrificed, and dissected for pathological examination.

[6] = system: protein kinase C (PKC); experiment: PKC activity from treated LNCaP cells; format: cell-based, Human; settings: as high as 15 μM, 24 hrs
Description: (§1) Assay for cyclin dependent kinase activity: HUVEC and LNCaP cells were cultured in EMB (endothelial cell basal medium) and RPMI 1640 containing 10% FBS, respectively. The cells grown exponentially were exposed to indicated concentrations of meisoindigo or NATURA for 24 hr. The cells were harvested, washed, and total proteins extracted as described previously. One hundred μg of the proteins were immuno-precipitated using antibodies against cdk2, cdk4/6, PKC, ERK2 or cyclin D1 overnight at 4° C. in the presence of a cocktail of protease inhibitors. […] The phosphorylated histone H1 (represent cdk activity) was measured by scintillation counting or by SDS-polyacrylaimde gel electrophoresis. The direct inhibitory effects of Meisoindigo and NATURA were also measured by reaction of immuno-purified specific enzyme from untreated cells directly with the Meisoindigo or NATURA. […]
(§2) LNCaP cells at exponential growth phase were exposed to different concentrations of NATURA (panel A & B) for 24 hrs, or to PD98059 (panel C) for 15 min. […] Upper panels are the imagines of x-ray films from SDS-PAGE, and lower panels represent the densities of each band from the films determined by an Imagine Densitometer from the same films (expressed as the percent of control).

[7] = Solubility description; format: physicochemical
[8] = biological target: T1, immuno-purified cdk2 from LNCaP cells (Homo sapiens, UniProt P24941); experiment: Direct inhibition of immuno-purified cdk2 activity in vitro; format: biochemical
T1 construct: Two hundred mg of total protein extracts were immuno-precipitated with cdk2 antibody overnight at 4° C
Description: (§3) Assay for cyclin dependent kinase activity: HUVEC and LNCaP cells were cultured in EMB (endothelial cell basal medium) and RPMI 1640 containing 10% FBS, respectively. The cells grown exponentially were exposed to indicated concentrations of meisoindigo or NATURA for 24 hr. The cells were harvested, washed, and total proteins extracted as described previously. One hundred μg of the proteins were immuno-precipitated using antibodies against cdk2, cdk4/6, PKC, ERK2 or cyclin D1 overnight at 4° C. in the presence of a cocktail of protease inhibitors. The immuno-precipitates were washed 4 times with protein extraction buffer and once with kinase assay buffer, and reacted with 75 μg/ml histone H1 in the presence of [γ-^32P]-ATP (2.5 μCi/10 μM). The phosphorylated histone H1 (represent cdk activity) was measured by scintillation counting or by SDS-polyacrylaimde gel electrophoresis. The direct inhibitory effects of Meisoindigo and NATURA were also measured by reaction of immuno-purified specific enzyme from untreated cells directly with the Meisoindigo or NATURA.
When immuno-purified cdk2 from LNCaP cells was reacted with histone H1 in the presence of different concentrations of NATURA-β and γ-[^32P]-ATP (2.5 μCi/[…]), the enzyme activity was decreased in a concentration-dependent manner.
Two hundred mg of total protein extracts were immuno-precipitated with cdk2 antibody overnight at 4° C. After 4 washes with PBSTDS, and once with kinase assay buffer, the immuno-purified enzyme was then reacted for 10 min with 10 mg of histone H1 in the presence of different concentrations of NATURA or 50 mM of genistein (as a positive control) and γ-[^32P]-ATP (2.5 mCi/10 mM). The phosphorylated histone H1 (reflecting cdk2 activity) was detected either by SDS-PAGE (upper panel), or radioactive scintillation counting (lower panel, after eliminating free γ-[^32P]-ATP).

[9] = system: cdk2; experiment: cdk2 activity immuno-precipitated from treated LNCaP cells; format: cell-based, Human; settings: 24 hours incubation with LNCaP cells
Description: as §3
LNCaP cells grown exponentially were exposed to different concentrations of NATURA for 24 hrs. […] The upper panels (A & B) are imagines of the films from SDS-PAGE, and lower panels represent the density measured by an Imagine Densitometer from the same films (expressed as percent of control).

[10] = system: extracellular signal-regulated protein kinase 2 (ERK2); experiment: ERK2 activity from treated LNCaP cells; format: cell-based, Human; settings: as high as 15 μM, 24 hrs
Description: as §1, §2

[11] = oral, 5 and 10 mg/kg daily for 6 months

Question: For `CN1C(=O)/C(=C2/C(=O)Nc3ccccc32)c2ccccc21` [Meisoindigo], which “Inhibition (%)” value [1] is on record?
Answer: Its value is 48.6 ± 4.1%.

Question: What about the “Tumor Size X ± SD” value [1] of the same molecule?
Answer: Its value is 1.80 ± 0.15.

Question: And the “reverse mutations (Ames test)” value [2]?
Answer: The value was “No induction of reverse mutations”.

Question: And the PARP protein degradation [3]?
Answer: The PARP protein degradation was “strong induction”.

Question: And the histochemical examinations [4]?
Answer: Its histochemical examinations is “cellular edema, fatty degeneration, and scatter hyperplasia inflammation in liver tissues”.

Question: What about the “biochemical changes of blood, liver, and kidney” value ([4]; po, 10 mg/kg) of the same molecule?
Answer: The value was “No biochemical changes”.

Question: And the clinical observations ([4]; po, 10 mg/kg)?
Answer: The clinical observations was “Minor gastro intestinal irritations were observed occasionally”.

Question: What about the clinical observations ([4]; po, 20 mg/kg) of the same molecule?
Answer: The clinical observations was “intestinal irritations at various degrees”.

Question: And the tested parameters ([4]; po, 20 mg/kg)?
Answer: The tested parameters was “No abnormalities”.

Question: What about the “pathological examination of heart, liver, lung, kidney, stomach, gastro intestine, testis, ovary, lymph node” value ([5]; 24 hours after termination of 6 months dosing) of the same molecule?
Answer: Its value is “No abnormalities”.

Question: What about the clinical observations [5, 11] of the same molecule?
Answer: The clinical observations was “minor gastro-intestinal irritations”.

Question: What about the “hemogram, functions of liver (SGPT), kidney (BUN) and heart (ECG) vs control” value [5, 11] of the same molecule?
Answer: The value was “No significant differences”.

Question: Which results are given for `CC(=O)OC1COC(N2C(=O)/C(=C3/C(=O)Nc4ccccc43)c3ccccc32)C(OC(C)=O)C1OC(C)=O` [NATURA, 1-(β-D-O-Triacetyl-xylopyranosyl)-isoindigo]?
Answer: effect on PKC activity [6]: No inhibitory effect; solubility in dimethyl sulfoxide (DMSO) [7]: soluble; solubility in ethanol, acetone, chloroform [7]: slightly dissolves; solubility in water [7]: rarely dissolves; inhibition at 10 µM ([8]; 10 μM compound, ATP concentration as high as 100 μM, read-out: inhibitory effect on immuno-purified cdk2, ATP competing assay): > 50%; IC50 ([8]; immuno-purified cdk2, histone H1, γ-[32P]-ATP 2.5 μCi/20 μM): 1600 ± 200 nM; PARP protein degradation [3]: strong induction; inhibition of cdk2 enzyme activity ([9]; 5.0 μM): approximately 46%; inhibition of cdk2 enzyme activity ([9]; 15 μM): ~92%; effect on ERK2 activity [10]: No inhibitory effect

— patent US6933315B2, “Derivatives of isoindigo, indigo and indirubin and methods of treating cancer” (priority 2001, dated 2005)
